Data published in patent publication US20100330602A1, “Use of Soluble Galectin-3 (Gal-3) for Cancer Treatment” (Emory University, priority 2006, published 2010).
Peptide text beside a SMILES is read from it. * marks the point of attachment. Cbz = O=C(OCc1ccccc1)*; CH2F = FC*

Experiments:
[1] = system: four different human glioma cell lines; test: Recombinant Gal-3 added to culture medium, cell number; type: cell-based
Experimental: FIG. 6D. Purified recombinant human Gal-3 (Research Diagnostics Inc.) induces cytotoxicity in four glioma cell lines in a dose-response fashion (0, 5, 12.5, 25, 50, 100, 150 ng/ml) within 48 hrs.
A comparison of rGal3 with naturally secreted Gal3 evidences post-translational modifications in the naturally secreted one (data not shown).

[2] = system: LN-Z308 glioma cells; test: Crystal violet assay, CM of sGal-3 transfected 293 cells; type: cell-based, human; details: CM of transfected 293 cells as source of sGal-3, after 48 h
Experimental: (§1) 293 cells were transfected using GenePORTER reagent (Gene Therapy Systems; CA, USA) with the pUMVC7-sGal-3 plasmid and switched over to serum free media 16 h later. The CM was collected after 48 h, floating cells removed through centrifugation at 1000 g, and filtrated through a 0.8 μm filter (Corning; NY, USA). Cells were plated at 5,000 cells per well in 24-well plates and treated with serial dilutions of CM from either pCMV-LacZ or pUMVC7-sGal-3 transfected 293 cells. Relative cell number compared to serum free media control was quantified in triplicate 24 h and 48 h post treatment using either an MTT kit (Roche; IN, USA) or by crystal violet assay by acquiring absorbance at 575 nm using a spectrophotometer.
(§2) After cleavage of the secretion signal, the sGal-3 amino acid sequence is identical to the endogenous secretion product. It is nevertheless possible that sGal3 will have different post-translational modifications that may vary between the exosome-mediated secretory pathway and the classical secretion pathway. To verify the functionality of the construct, the construct was transfected in 293-CLH cells where it mediated a robust increase in the expression and secretion of Gal-3 without intracellular accumulation (FIG. 6A). Using the CM of transfected 293 cells as a source of sGal-3, its effect on the growth of SF767, LN-Z308 and LN229 glioma cells was determined using a crystal violet assay. […] Cells incubated with serum free medium or CM from 293 cells transfected with control pCMV-lacZ plasmid were unaffected (FIG. 6B).

[3] = system: LN229 glioma cells; test: as above; type: cell-based, human; details: CM of transfected 293 cells as source of sGal-3, after 48 h
Experimental: as §1, §2

[4] = system: SF767 glioma cells; test: as above; type: cell-based, human; details: CM of transfected 293 cells as source of sGal-3, after 48 h
Experimental: as §1, §2

[5] = system: A549 lung cancer cell line; test: as above; type: cell-based
Experimental: as §1
(§3) To examine whether the cytotoxic effect of Gal-3 was limited to glioma or whether it represents a more general anti-cancer property, two breast cancer (MD468 and MCF7), two lung cancer (A549 and H1289) and two prostate cancer (LnCaP and PC3) cell lines were tested using the same assay and found all of them to be sensitive to sGal-3 presence in the medium (FIG. 6B).

[6] = system: H1289 lung cancer cell line; test: as above; type: cell-based
Experimental: as §1, §3

[7] = system: LnCaP prostate cancer cell line; test: as above; type: cell-based
Experimental: as §1, §3

[8] = system: MCF7 breast cancer cell line; test: as above; type: cell-based
Experimental: as §1, §3

[9] = system: MD468 breast cancer cell line; test: as above; type: cell-based
Experimental: as §1, §3

[10] = system: PC3 prostate cancer cell line; test: as above; type: cell-based
Experimental: as §1, §3

[11] = system: human dermal microvascular endothelial cells (HDMEC); test: Crystal violet assay, CM of sGal-3 transfected 293 cells, normal cells; type: cell-based
Experimental: as §1, §3

[12] = system: human foreskin fibroblasts (HFF); test: as above; type: cell-based
Experimental: as §1, §3

[13] = system: LN229 and LN-Z308 glioma cells; test: Apoptotic features after sGal-3 treatment with or without Z-VAD; type: cell-based, human
Experimental: (§4) FIG. 4: Secreted Gal-3 induces apoptosis in tumor cells. FIG. 4A. Bright field pictures and quantification of LN229 glioma cells after 12 h treatment with either secreted Gal-3 alone or in combination with 50 μM Z-VAD general caspase inhibitor. Note inhibition of sGal-3-mediated cell death when cells are co-treated with Z-VAD. Results were quantified by crystal violet assay and experiments repeated three times in triplicate. Similar results were obtained with LN-Z308 cells (data not shown). FIG. 4B.
(§5) Immunoblots were performed on cell lysates (lysed in 8 M urea, 4% SDS, in 10 mM Tris (pH 7.4)), from indicated cells. The conditioned media was precipitated by 15% TCA precipitation for 2 h at 4° C., washed twice with ice-cold acetone, and then resuspended in lysis buffer (8M urea, 4% SDS, 100 mM protease inhibitor cocktail (Roche, Germany)). Electrophoresis and blotting was performed using the Criterion system (BioRad; CA, USA) on. TCA precipitated proteins. […]
(§6) LN229 and LN-Z308 glioma cells were treated with either extracellular Gal-3 alone, or in combination with the Z-VAD general caspase inhibitor and analyzed the cells for apoptotic features.

[14] = system: Caspase-3 and PARP cleavage in LN229 cells; test: Western blot for caspase-3 and PARP cleavage after sGal-3 treatment; type: cell-based, human
Experimental: as §4, §5, §6

[15] = system: LN229-L16-derived dox-inducible sGal-3 clones; test: Dox-induced sGal-3 expression in cell culture; type: cell-based, human; details: within 3-5 days in cell culture
Experimental: Five μg of the plasmid DNA and 5 μl of GenePORTER reagent (Gene Therapy Systems; San Diego, Calif.) were used for each transfection. One μg of pcDNA3.1 containing the geneticin (G418)-resistance cassette was co-transfected at a […], when generating stable clones. Tetracycline-inducible sGal-3 transfected clones were generated in L16 glioma cells (Tet-on clone derived from LN229) by selecting for G418 resistance (1,200 μg/ml). The individual clones were assessed for expression of sGal-3 after 48 h dox induction by western blot analysis. For TSAP6 siRNA, HEK293 cells were transfected with either pcDNA3.1 vectors containing TSAP6 and Galectin-3 alone or in combination with […] or TSAP6 (pHYDE) siRNA (Santa Cruz, Calif., USA) using GenePORTER reagent (Gene Therapy Systems; CA, USA). Cells were allowed to recover overnight in 10% FBS containing DMEM before switching them to serum free media. Cells and CM were collected after 24 hours in serum free media.
To test this concept, dox-inducible sGal-3 clones were generated with variable expression levels in LN229-L16 cells (rtTA expressing) (see materials and methods) (FIG. 7A).

[16] = system: tumors of sGal-3 expressing tet-inducible clones #12 and #21; test: In vivo mouse tumorigenicity assay (subcutaneous xenograft); design: species or system athymic nude mice
Experimental: FIG. 7C. sGal-3 inhibits tumor growth. Six-week old female athymic nude mice (NCI) were injected subcutaneously with 5×10^6 cells of clone #12 and divided into two groups (n=8). Similar results were obtained with clone #21. One group was left untreated while the second group was given 2 mg/ml Dox in drinking water containing 5% sucrose to induce expression of sGal-3 one week after tumor cell implantation until termination of the experiment. The length (a) and width (b) of the tumors were measured weekly and tumor volume was calculated in mm^3=(a×b^2)/2.
Six-week old female athymic nude mice (NCI) (n=8/group) were injected subcutaneously with 5×10^6 cells of the indicated cell lines. 2 mg/ml Dox was delivered orally in drinking water containing 5% sucrose to induce expression and secretion of Gal-3 one week post injection of tumor cells until termination of the experiment. The length (a) and width (b) of the tumors were measured weekly and tumor volume was calculated in mm^3=(a×b^2)/2.
To test directly the effect of sGal-3 on tumor growth in vivo, a nu/nu mouse xenograft model system was used. Cells (5×10^6) from the sGal-3 expressing tet-inducible clones #12 and #21 were injected subcutaneously in the mice and sGal-3 expression was induced one week post tumor cell implantation in half of the injected mice by feeding dox in the drinking water for 12 weeks (9 mice/group). Only 4 of the 18 tumors (clone #12) in the sGal-3 expressing group developed while 14/18 tumors grew in the control group. […] Immunohistochemistry for Gal-3 expression in excised tumors from mice treated with doxycycline confirmed that Gal-3 was expressed (FIG. 7D).

[17] = system: Gal-3 secretion in SF767 cells; test: Western blot for secreted Gal-3 in SF767 glioma cells; type: cell-based, human; details: SF767, VP16 alone
Experimental: FIG. 2E. […] This effect is inhibited by p53 siRNA (lanes 5,6) but not control siRNA (lanes 3,4).
FIG. 23. […] This effect is inhibited by siRNAs for TSAP6 (lane 2), p53 (lane 3) and Fas (lane 4), but not control siRNA (lane 1).
Immunoblots were performed on cell lysates (lysed in 8 M urea, 4% SDS, in 10 mM Tris (pH 7.4)), from indicated cells. The conditioned media was precipitated by 15% TCA precipitation for 2 h at 4° C., washed twice with ice-cold acetone, and then resuspended in lysis buffer (8M urea, 4% SDS, 100 mM protease inhibitor cocktail (Roche, Germany)). Electrophoresis and blotting was performed using the Criterion system (BioRad; CA, USA) on. TCA precipitated proteins. Western blots were probed with antibodies for p53 (M7001-clone DO-7; DAKO; 1:500), p21 (MS-891-P1; Neomarkers, CA, USA; 1:250), Gal-3 (ab14364; Santa Cruz, Calif., USA; 1:500), HA (Roche; Germany, 1:500), caspase-3 (1:5000), α-TSP1 (MS-421-P1-Ab-4; NeoMarkers; CA, USA; 1:1000), and PARP (556494; BD Biosciences; CA, USA, 1:1000). Actin was used as a loading control (sc-1615, Santa Cruz Biotechnology; CA; 1:500). Blots were visualized by enhanced chemiluminescence (Pierce, IL, USA). For apoptosis analysis, cells were treated with either media containing secreted Gal-3 or with both secreted Gal-3 and 50 μm Z-VAD-FMK general caspase inhibitor (BD Biosciences; CA, USA). […]

[18] = system: SF767 cells; test: Cell death in SF767 cells in response to VP16; type: cell-based, human; details: VP16 alone or with control siRNA
From the text: The levels of cell death in SF767 cells in response to VP16 treatment in the presence of either p53 or TSAP-6 specific siRNAs as well as in the presence of anti-Gal-3 antibody were further determined. […] This effect was inhibited in the presence of specific siRNAs for p53 (FIGS. 2E and H) or TSAP-6 as well as in the presence of anti-Gal-3 antibody. The inhibition mediated by TSAP6 siRNA was not complete, likely reflecting the incomplete TSAP6 inhibition by this siRNA (FIG. 2E).

## rGal-3: Purified recombinant human Gal-3 (Research Diagnostics Inc.)
[1]
  potency compared with naturally secreted Gal-3: less than that found naturally secreted by human cells
[1]; increasing amounts (0, 5, 12.5, 25, 50, 100, 150 ng/ml) over 48 h
  cell number: dose-dependent decrease in cell number

## sGal-3: constitutively secreted soluble Gal-3; Gal-3 cDNA fused to classical secretion signal peptide from the plasminogen activator gene, produced in 293 cells
[2]
  decrease in cell number: greater than 75%
[3]
  decrease in cell number: greater than 75%
[4]
  decrease in cell number: greater than 75%
[5]
  sensitivity to sGal-3 presence in the medium: sensitive
[6]
  sensitivity to sGal-3 presence in the medium: sensitive
[7]
  sensitivity to sGal-3 presence in the medium: sensitive
[8]
  sensitivity to sGal-3 presence in the medium: sensitive
[9]
  sensitivity to sGal-3 presence in the medium: sensitive
[10]
  sensitivity to sGal-3 presence in the medium: sensitive
[11]
  viability in response to secreted Gal-3 in the media: did not show decreased viability
[12]
  viability in response to secreted Gal-3 in the media: did not show decreased viability
[13]; sGal-3 alone, as early as 12 h post treatment
  apoptotic features: membrane blebbing, and cell death
[14]; within 12 h of sGal-3 treatment
  Caspase-3 and PARP cleavage: Caspase-3 and PARP cleavage
[15]
  cell death upon induction of sGal-3: cell death in all three clones
[16]; clone #12, p<0.02
  average tumor volume at termination versus controls: over six-fold smaller
[16]; clone #12, sGal-3 induced by dox in drinking water for 12 weeks, control 14/18
  tumors developed: 4 of the 18
[16]; clone #21, on average
  tumor size at termination, fold smaller than control group: 4 fold
[16]; clone #21, sGal-3 expression, control 16/18
  tumors grew: 6 of 18

## COc1cc([C@@H]2c3cc4c(cc3[C@@H](O[C@@H]3O[C@@H]5CO[C@@H](C)O[C@H]5[C@H](O)[C@H]3O)[C@H]3COC(=O)[C@H]23)OCO4)cc(OC)c1O [Etoposide, etoposide]
[17]
  secretion of Gal-3 in the media: enhanced secretion of Gal-3
[18]
  levels of cell death: marked levels of apoptosis

## COC(=O)C[C@H](NC(=O)[C@H](C)NC(=O)[C@@H](NC(=O)OCc1ccccc1)C(C)C)C(=O)CF [Z-VAD, Z-VAD-FMK, reference compound] (Cbz-Val-Ala-Asp(OMe)-CH2F)
[13]; co-treatment with 50 μM Z-VAD
  effect on sGal-3-mediated cell death: inhibited
[14]; co-treatment with 50 μM Z-VAD
  effect on sGal-3-induced Caspase-3 and PARP cleavage: neutralized
